Experimental data: patent publication US9382197B2, “Substituted hydroxamic acids and uses thereof” (Millennium Pharmaceuticals, Inc., priority 2010, dated 2016)
One block for each compound: values may come before it.

Target: T1, purified human HDAC6 (Homo sapiens, UniProt Q9UBN7)
T1 construct: purchased BPS Bioscience 5006
T1 sequence (Q9UBN7 1-1215): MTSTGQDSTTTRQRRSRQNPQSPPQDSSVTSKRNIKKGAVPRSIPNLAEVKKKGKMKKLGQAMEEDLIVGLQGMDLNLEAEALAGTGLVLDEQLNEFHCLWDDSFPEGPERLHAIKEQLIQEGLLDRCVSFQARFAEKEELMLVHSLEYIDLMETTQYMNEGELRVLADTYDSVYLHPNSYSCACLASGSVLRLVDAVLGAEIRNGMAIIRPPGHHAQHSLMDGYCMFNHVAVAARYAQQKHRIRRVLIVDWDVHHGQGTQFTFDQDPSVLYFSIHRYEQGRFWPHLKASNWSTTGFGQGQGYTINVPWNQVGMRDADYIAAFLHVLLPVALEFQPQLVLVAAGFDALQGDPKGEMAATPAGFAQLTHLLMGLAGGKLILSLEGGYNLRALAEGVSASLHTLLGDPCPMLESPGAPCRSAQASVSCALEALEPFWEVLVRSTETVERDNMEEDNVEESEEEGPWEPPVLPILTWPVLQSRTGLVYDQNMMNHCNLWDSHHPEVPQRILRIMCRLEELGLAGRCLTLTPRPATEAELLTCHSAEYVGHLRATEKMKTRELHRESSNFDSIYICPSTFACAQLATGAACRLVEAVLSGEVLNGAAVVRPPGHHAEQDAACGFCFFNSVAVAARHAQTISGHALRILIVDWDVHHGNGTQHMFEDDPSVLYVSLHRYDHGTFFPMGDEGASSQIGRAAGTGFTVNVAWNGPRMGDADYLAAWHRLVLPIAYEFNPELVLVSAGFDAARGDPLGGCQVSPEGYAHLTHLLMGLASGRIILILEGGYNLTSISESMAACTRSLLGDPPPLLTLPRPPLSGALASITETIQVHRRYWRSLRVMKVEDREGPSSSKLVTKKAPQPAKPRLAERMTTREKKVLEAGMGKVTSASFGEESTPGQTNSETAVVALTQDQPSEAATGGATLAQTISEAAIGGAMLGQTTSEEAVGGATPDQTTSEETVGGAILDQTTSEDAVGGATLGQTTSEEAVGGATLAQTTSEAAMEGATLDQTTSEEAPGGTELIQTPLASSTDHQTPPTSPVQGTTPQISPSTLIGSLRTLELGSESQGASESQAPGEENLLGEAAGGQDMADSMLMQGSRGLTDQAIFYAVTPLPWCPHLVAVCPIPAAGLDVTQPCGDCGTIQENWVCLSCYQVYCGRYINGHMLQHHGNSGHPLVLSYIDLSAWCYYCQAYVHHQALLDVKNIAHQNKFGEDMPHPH
Assay: HDAC6 Enzyme Assay
Format: biochemical
How it was run: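 Purified human HDAC6 incubated 1 h at 30 °C with Ac-Arg-Gly-Lys(Ac)-AMC and compound; trichostatin A stop, trypsin release of AMC, fluorescence Ex 340/Em 460 nm. IC50 from concentration–response relative to DMSO.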

[1] = purified human HDAC6, substrate Ac-Arg-Gly-Lys(Ac)-AMC, 1 hour at 30° C., reported as bins

IC50 [1]: 100 to 500 nM
SMILES: C[C@@H](NC(=O)C1(C)CCNCC1)c1ccc(C(=O)NO)cc1 [Compound I-487, N-((1R)-1-{4-[(hydroxyamino)carbonyl]phenyl}ethyl)-4-methylpiperidine-4-carboxamide]

IC50 (bin: greater than 1 μM): > 1000 nM
SMILES: Cc1cc(C(=O)NO)ccc1C(C)NC(=O)C(C)(C)C (stereo not drawn) [Compound I-490, 4-{1-[(2,2-dimethylpropanoyl)amino]ethyl}-N-hydroxy-3-methylbenzamide]

IC50 [1]: < 100 nM
SMILES: Cc1ccc(NC(=O)N[C@@H](c2ccc(C(=O)NO)cc2)C(C)C)cc1C [Compound I-512, 4-[(1R)-1-({[(3,4-dimethylphenyl)amino]carbonyl}amino)-2-methylpropyl]-N-hydroxybenzamide]

IC50 [1]: < 100 nM
SMILES: CC(C)[C@@H](NC(=O)N[C@H](C)c1ccccc1)c1ccc(C(=O)NO)cc1 [Compound I-514, N-hydroxy-4-[(1R)-2-methyl-1-({[(1R)-1-phenylethyl]carbamoyl}amino)propyl]benzamide]

IC50 [1]: < 100 nM
SMILES: CC(C)[C@@H](NC(=O)Nc1ccccc1-c1ccccc1)c1ccc(C(=O)NO)cc1 [Compound I-515, 4-((1R)-1-{[(biphenyl-2-ylamino)carbonyl]amino}-2-methylpropyl)-N-hydroxybenzamide]

IC50 [1]: < 100 nM
SMILES: CC(C)[C@@H](Nc1nc(-c2cc(-c3ccccc3)no2)cs1)c1ccc(C(=O)NO)cc1 [Compound I-519, N-hydroxy-4-((1R)-2-methyl-1-{[4-(3-phenylisoxazol-5-yl)-1,3-thiazol-2-yl]amino}propyl)benzamide]

IC50 [1]: < 100 nM
SMILES: CC(C)[C@@H](NC(=O)NCCc1ccccc1)c1ccc(C(=O)NO)cc1 [Compound I-522, N-hydroxy-4-[(1R)-2-methyl-1-({[(2-phenylethyl)amino]carbonyl}amino)propyl]benzamide]

IC50 [1]: < 100 nM
SMILES: CC(C)[C@@H](NC(=O)Nc1cccc2ccccc12)c1ccc(C(=O)NO)cc1 [Compound I-524, N-hydroxy-4-((1R)-2-methyl-1-{[(1-naphthylamino)carbonyl]amino}propyl)benzamide]

IC50 [1]: < 100 nM
SMILES: CC(C)[C@@H](NC(=O)Nc1ccc(C#N)cc1)c1ccc(C(=O)NO)cc1 [Compound I-525, 4-[(1R)-1-({[(4-cyanophenyl)amino]carbonyl}amino)-2-methylpropyl]-N-hydroxybenzamide]

IC50 [1]: < 100 nM
SMILES: CC(C)[C@@H](NC(=O)Nc1ccc2c(c1)CCO2)c1ccc(C(=O)NO)cc1 [Compound I-526, 4-((1R)-1-{[(2,3-dihydro-1-benzofuran-5-ylamino)carbonyl]amino}-2-methylpropyl)-N-hydroxybenzamide]

IC50 [1]: < 100 nM
SMILES: C[C@@H](NC(=O)Nc1cccc2ccccc12)c1ccc(C(=O)NO)cc1 [Compound I-527, N-hydroxy-4-((1R)-1-{[(1-naphthylamino)carbonyl]amino}ethyl)benzamide]

More lines, now with the values behind:

SMILES: CC(NS(=O)(=O)c1ccc(C(F)(F)F)cc1)c1ccc(C(=O)NO)cc1 (stereo not drawn) [Compound I-488, N-hydroxy-4-[1-({[4-(trifluoromethyl)phenyl]sulfonyl}amino)ethyl]benzamide]
IC50 (bin: greater than 1 μM): > 1000 nM | IC50 [1]: 100 to 500 nM

SMILES: C[C@@H](NCC1(C)CCCCC1)c1ccc(C(=O)NO)cc1 [Compound I-489, N-hydroxy-4-((1R)-1-{[(1-methylcyclohexyl)methyl]amino}ethyl)benzamide]
IC50 [1]: 100 to 500 nM

SMILES: Cc1cc(C(=O)NO)ccc1C(C)NC(=O)C12CC3CC(CC(C3)C1)C2 (stereo not drawn) [Compound I-491, N-(1-{4-[(hydroxyamino)carbonyl]-2-methylphenyl}ethyl)adamantane-1-carboxamide]
IC50 (bin: greater than 1 μM): > 1000 nM

SMILES: C[C@H](NC(=O)N[C@H](C)c1ccc(C(=O)NO)cc1)c1ccccc1 [Compound I-513, N-hydroxy-4-[(1R)-1-({[(1S)-1-phenylethyl]carbamoyl}amino)ethyl]benzamide]
IC50 [1]: < 100 nM

SMILES: CC(C)[C@@H](NC(=O)N[C@@H](C)c1ccccc1)c1ccc(C(=O)NO)cc1 [Compound I-516, N-hydroxy-4-{(1R)-2-methyl-1-[({[(1S)-1-phenylethyl]amino}carbonyl)amino]propyl}benzamide]
IC50 [1]: < 100 nM

SMILES: C[C@@H](NC(=O)N[C@H](C)c1ccc(C(=O)NO)cc1)c1ccccc1 [Compound I-517, N-hydroxy-4-[(1R)-1-({[(1R)-1-phenylethyl]carbamoyl}amino)ethyl]benzamide]
IC50 [1]: 100 to 500 nM

SMILES: C[C@@H](NC(=O)Nc1c(F)cccc1F)c1ccc(C(=O)NO)cc1 [Compound I-518, 4-[(1R)-1-({[(2,6-difluorophenyl)amino]carbonyl}amino)ethyl]-N-hydroxybenzamide]
IC50 [1]: < 100 nM

SMILES: CC(C)[C@@H](NC(=O)Nc1c(F)cccc1F)c1ccc(C(=O)NO)cc1 [Compound I-521, 4-[(1R)-1-({[(2,6-difluorophenyl)amino]carbonyl}amino)-2-methylpropyl]-N-hydroxybenzamide]
IC50 [1]: < 100 nM

SMILES: C[C@@H](NC(=O)Nc1ccccc1-c1ccccc1)c1ccc(C(=O)NO)cc1 [Compound I-523, 4-((1R)-1-{[(biphenyl-2-ylamino)carbonyl]amino}ethyl)-N-hydroxybenzamide]
IC50 [1]: < 100 nM

SMILES: C[C@@H](NC(=O)Nc1ccc2c(c1)CCO2)c1ccc(C(=O)NO)cc1 [Compound I-528, 4-((1R)-1-{[(2,3-dihydro-1-benzofuran-5-ylamino)carbonyl]amino}ethyl)-N-hydroxybenzamide]
IC50 [1]: < 100 nM

SMILES: CC(C)[C@@H](Nc1nc(C(F)(F)F)cs1)c1ccc(C(=O)NO)cc1 [Compound I-529, N-hydroxy-4-((1R)-2-methyl-1-{[4-(trifluoromethyl)-1,3-thiazol-2-yl]amino}propyl)benzamide]
IC50 [1]: < 100 nM

SMILES: CCC[C@H](NC(=O)C(C)(C)C)c1ccc(C(=O)NO)cc1 [Compound I-536, 4-{(1S)-1-[(2,2-dimethylpropanoyl)amino]butyl}-N-hydroxybenzamide]
IC50 (bin: greater than 500 nM and less than 1 μM (lower bound in nM, upper bound in μM)): 500 to 1000 nM
